The text below walks through data of patent US5527815A, “Carboxymethylidenecycloheptimidazole derivatives, method of manufacturing the same and therapeutic agents containing these compounds” (Kotobuki Seiyaku Co., Ltd., priority 1993, dated 1996).

Assay [1] deals with pressor responses to AII. Put plainly: Inhibition of AII induced blood pressure increase in rats. The format is in vivo. To be noted: Rattus norvegicus, po, test compound 0.3 mg/kg orally, AII 30 ng/kg i.v., pressor responses measured at set times. The protocol: [Inhibition of All induced Blood Pressure Increase]
Carotid artery and left femoral vein in rats were cannulated. Next day, the carotid catheter was connected to a pressure transducer for monitoring arterial blood pressure. After the measurement of AII (30 ng/kg, i.v.) pressor responses, test compounds (0.3 mg/kg) were administered orally.
Thereafter, the pressor responses to AII at set times were measured and the inhibition percent was calculated according to the comparison of the pressor responses.

Assay [2] deals with T1, Angiotensin II receptor (Oryctolagus cuniculus, UniProt P34976).
T1 construct: Rabbit thoracic aorta is isolated, contracted by angiotensin II; from tissue; host or cells: rabbit thoracic aorta
T1 sequence (P34976 1-359): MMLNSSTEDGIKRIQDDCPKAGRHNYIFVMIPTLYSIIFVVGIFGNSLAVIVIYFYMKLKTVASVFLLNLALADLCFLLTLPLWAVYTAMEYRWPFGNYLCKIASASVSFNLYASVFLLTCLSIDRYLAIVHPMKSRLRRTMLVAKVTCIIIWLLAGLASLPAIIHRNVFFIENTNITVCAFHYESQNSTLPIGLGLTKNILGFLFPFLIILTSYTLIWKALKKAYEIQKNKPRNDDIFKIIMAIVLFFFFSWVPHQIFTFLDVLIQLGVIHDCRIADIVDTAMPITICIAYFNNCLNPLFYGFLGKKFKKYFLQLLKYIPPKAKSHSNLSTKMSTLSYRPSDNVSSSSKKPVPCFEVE
Put plainly: AII receptor antagonistic activity: inhibition of angiotensin II induced contraction of isolated rabbit thoracic aorta. The settings on record: isolated rabbit thoracic aorta contracted by angiotensin II; Van Rossum method; values shown in parenthesis. It counts as cell-based. The protocol:
[AII receptor antagonistic activity]
Angiotensin II receptor activity experiments are carried out according to P. C. Wong et al. (Hypertension 15, 823 (1990)).
Rabbit thoracic aorta is isolated, contracted by angiotensin II. The inhibition of contraction by the compound of formula (1) is expressed as pA2 from dose-response curve (Schild, Brit. J. Pharmacol. 14, 48 (1959)) or expressed as pD2 ' according to the method of J. M. Van Rossum (Arch. Intern. Pharmacodyn., 143, 229 (1963)).

As a reminder, the inhibition in vivo is how much of the control response was suppressed. High values mean a strong effect, low ones a weak effect.

In assay [1], `CCCc1nc2c(n1Cc1ccc(-c3ccccc3-c3nnn[nH]3)cc1)/C(=C/C(=O)OC(C)OC(=O)OC(C)C)CCCC2` (stereo not shown) [Compound 29, 2-Propyl-8-(1-isopropoxycarbonyloxy)ethoxycarbonylmethylidene-1-[(2'-(1H-tetrazole-5-yl)biphenyl-4-yl)methyl]-4,5,6,7-tetrahydro-cycloheptimidazole] came in with an inhibition in vivo at 0.3 mg/kg of at least 70%. In addition, the “pD2'” value in assay [2] is 8.18.

Take `CCc1nc2c(n1Cc1ccc(-c3ccccc3-c3nnn[nH]3)cc1)/C(=C/C(=O)O)CCCC2` [Compound 16, 2-Ethyl-8-carboxymethylidene-1-[(2'-(1H-tetrazole-5-yl)biphenyl-4-yl)methyl]-4,5,6,7-tetrahydro-cycloheptimidazole]: in assay [1], the inhibition in vivo at 0.3 mg/kg is at least 70%. Besides, the “pD2'” value in assay [2] was 9.91.
